Experiments:
[1] = molecular target: mSPHK1 (Mus musculus, UniProt Q8CI15); assay: Biochemical SPHK activity, 33P incorporation into S1P; parameters: species or system murine; conditions: biochemical assay
Protocol: (§1) A biochemical assay was used to measure the incorporation of ^33P-radiolabeled phosphate from ATP into S1P. Reactions were performed in 96-well polystyrene high-binding microplates (Greiner) in a volume of 60 µl. Reaction mixtures contained 50 mM HEPES (pH 7.5), 3 mM MgCl2, 10 mM NaF, 1 µM ATP, 0.75 µCi of [γ-33P]ATP, 1.11 µM sphingosine (Biomol International) in the presence of either 0.005% Triton X-100 (SPHK1) or 0.0025% NP-40 (SPHK2). Enzymatic reactions were initiated by adding 30 nM of sphingosine kinase in the presence of 2 mM dithiothreitol (DTT). Reactions were terminated after 50 min at 30°C by adding 30 µL 7.5 M Guanidine HCl. Plates were then washed three times with 200 µl PBS before 50 ul of scintillate was added to each well. The assay was quantified by counting in a Packard TopCount (Perkin Elmer).

[2] = system: human cell lines; assay: Cellular SPHK activity, C17 S1P levels, summary for human cell lines; assay type: cell-based
[3] = system: A375; assay: 72 h viability assay (CellTiter-Glo); assay type: cell-based; conditions: Homo sapiens, A-375, A375 (Skin), inflection point of titration curve
Protocol: (§2) Cell lines were obtained from ATCC and cultured in Dulbecco’s Modification of Eagle’s Medium (Corning® cellgro 10-013) supplemented with 5% FBS and 1% P/S or in Minimum Essential Medium (Corning® cellgro® 10-010) supplemented with 10% FBS, 0.1 mM MEM Nonessential Amino Acids (Corning® cellgro 25-025), 1.0 mM sodium pyruvate (Corning® cellgro 25-000) and 1% P/S. Cells were seeded at a density of 5000 cells per well in 96-well cell culture plates on day1. Media was changed with or without serum and dosed with compound on Day 2. On day5 the Cell Viability assay was performed with CellTiter-Glo® Reagent (Promega) according to the manufacturers instruction.
(§3) S1P has been reported to be important for tumor cell viability, and reduction of intracellular S1P levels has been associated with greater cellular sensitivity to pro-apoptotic stress, [7]. Compounds A and B were used to test this hypothesis experimentally. A panel of cell lines likely to be sensitive to SPHK inhibition was assembled based on literature reports, internal siRNA data and SPHK expression levels, [9], [21]. Viability was monitored after 72 h of SPHK inhibition under regular culture conditions to assess direct effects on cell viability, and under serum starvation to assess the effects of SPHK inhibition under stress conditions. […] Cell death was only observed at higher concentrations (3 to 30 µM). […] Like all substrate competitive SPHK inhibitors, these compounds have a polar headgroup and a lipophilic tail, and can act as detergents at higher concentrations. […]

[4] = system: Colo 320; assay: 72 h viability assay (CellTiter-Glo); assay type: cell-based; conditions: Homo sapiens, Colo 320 (Colon), inflection point of titration curve
Protocol: as §2, §3

[5] = system: HA-1; assay: 72 h viability assay (CellTiter-Glo); assay type: cell-based; conditions: read-out: IC50 viability
Protocol: as §2, §3

[6] = system: HS294T; assay: 72 h viability assay (CellTiter-Glo); assay type: cell-based; conditions: Homo sapiens, Hs 294T, HS294T (Skin), inflection point of titration curve
Protocol: as §2, §3

[7] = system: HeLa; assay: 72 h viability assay (CellTiter-Glo); assay type: cell-based; conditions: Homo sapiens, HeLa (Cervix), inflection point of titration curve
Protocol: as §2, §3

[8] = system: LN18; assay: 72 h viability assay (CellTiter-Glo); assay type: cell-based; conditions: Homo sapiens, LN-18, LN18 (Brain), inflection point of titration curve
Protocol: as §2, §3

[9] = system: LN229; assay: 72 h viability assay (CellTiter-Glo); assay type: cell-based; conditions: Homo sapiens, LN-229, LN229 (Brain), inflection point of titration curve
Protocol: as §2, §3

[10] = system: Saos2; assay: 72 h viability assay (CellTiter-Glo); assay type: cell-based; conditions: Homo sapiens, SAOS-2, Saos2 (Bone), inflection point of titration curve
Protocol: as §2, §3

[11] = system: UACC257; assay: 72 h viability assay (CellTiter-Glo); assay type: cell-based; conditions: Homo sapiens, UACC-257, UACC257 (Skin), inflection point of titration curve
Protocol: as §2, §3

[12] = system: WM266-4; assay: 72 h viability assay (CellTiter-Glo); assay type: cell-based; conditions: Homo sapiens, WM 266-4, WM266-4 (Skin), inflection point of titration curve
Protocol: as §2, §3

[13] = system: LOX; assay: 72 h viability assay (CellTiter-Glo); assay type: cell-based, human; conditions: LOX (Skin), inflection point of titration curve
Protocol: as §2
(§4) S1P has been reported to be important for tumor cell viability, and reduction of intracellular S1P levels has been associated with greater cellular sensitivity to pro-apoptotic stress, [7]. […] A panel of cell lines likely to be sensitive to SPHK inhibition was assembled based on literature reports, internal siRNA data and SPHK expression levels, [9], [21]. Viability was monitored after 72 h of SPHK inhibition under regular culture conditions to assess direct effects on cell viability, and under serum starvation to assess the effects of SPHK inhibition under stress conditions.
(§5) The IC50s reflect the inflection point of the titration curve.

[14] = system: panel of cell lines; assay: 72 h viability assays, summary for panel of cell lines; assay type: cell-based; conditions: regular culture conditions and serum starvation
Protocol: as §2, §4

[15] = system: LN229 cells; assay: 15 day colony formation assay; assay type: cell-based, human; conditions: concentrations up to 1 µM
Protocol: LN-229 cells were cultured in Dulbecco’s Modification of Eagle’s Medium (Corning® cellgro 10-013) supplement with 5%FBS and 1% P/S. On Day 1 cells were seeded on 6-well tissue culture plates at density of 800 cells per well. On Day 2 compounds were added and cells were incubated for 15 days at 37°C. Cells were then stained with Crystal violet.
The long term effect of SPHK inhibition on cell viability was studied in the glioblastoma cell line LN229. […] Concentrations of more than 3 µM led to immediate cell death due to cell lysis and prevented the formation of colonies (figure 5).
Figure 5 Effects of SPHK inhibition in colony formation assays. LN229 cells were seeded at a density of 800 cells/well in a six well plate in the presence of the indicated concentrations of SPHK inhibitor. After 15 days, cells were fixed and stained with crystal violet.

[16] = system: plasma levels of S1P; assay: Pharmacodynamic assay, plasma S1P levels in mice; assay type: in vivo
Protocol: (§6) For S1P measurements, plasma was extracted with 0.1% formic acid/methanol containing an internal standard (C17-S1P) and subjected to LC-MS/MS analysis. […] The method provided linear response over a concentration range of 1 to 2000 ng/ml. A separate aliquot of plasma was extracted with acetonitrile containing an internal standard (structural analog) and subjected to reversed-phase liquid chromatographic using a Shiseido UG Capcell C18, 50×2 mm analytical column (Phenomenex). MS/MS analysis was conducted on a API4000 with an electrospray interface using multiple reaction monitoring (MRM) in the positive ionization mode.
(§7) Female athymic nude mice were assigned to one of fifteen treatment groups. […] At various times after dosing (2 to 24 h), mice were sacrificed and plasma collected to determine S1P levels and compound concentrations. Data are mean ± SE (n = 5). […] S1P and drug concentration were determined by LC-MS/MS.
(§8) The inhibition of sphingosine kinase was evaluated in a pharmacodynamic assay. […] At 2, 7 and 24 hours post dose, plasma was collected and levels of S1P and plasma drug concentration were determined.

[17] = Compound plasma concentration in mice after oral gavage; assay type: in vivo
Protocol: as §6, §7, §8

[18] = system: MDA-MB-231 xenograft tumors; assay: MDA-MB-231 tumor xenograft model; assay type: in vivo; conditions: athymic nude mice
Protocol: MDA-MB-231 cells were purchased from the American Type Culture Collection (ATCC) and maintained in DMEM high glucose with 10% fetal bovine serum (FBS) and 1x-L-glutamine. Mice were injected subcutaneously with 5×10^6 cells in 30% Matrigel (BD Biosciences, San Jose, CA). […] Vehicle and compound A were administered by oral gavage daily. Taxotere was administered by intraperitoneal injection once a week. Tumor dimensions were assessed twice weekly with a Pro-Max electronic digital caliper (Sylvac, Crissier, Switzerland) and tumor volume was calculated using the formula: length x width x height and expressed as mm^3. Data are expressed as mean +/− SE (n = 7–10). Repeated-measures analysis of variance (RMANOVA) followed by Dunnett’s post hoc test for multiple comparisons was used to evaluate statistical significance of observed differences. Body weight was recorded twice weekly as an index of toxicity.
Here, athymic nude mice were implanted s.c. with human MDA-MD-231 breast cancer cells. Dosing was initiated 18 days later when the tumors had reached ∼ 200 mm^3.
Female athymic nude mice were injected with 5×10^6 MDA-MB-231 cells on day 0. […] (n = 7–10 per group); bars, SE. *, P<0.0001, compared to vehicle.

[19] = system: human melanoma cell line WM266.4; assay: Cellular SPHK activity, C17 S1P levels; conditions: WM 266-4, 2 h, read-out: IC50, inhibition of cellular SPHK activity (C17 S1P)
Protocol: (§9) Frozen cell pellets (1×10^6 cells) were thawed and 75 µl of methanol was added. The samples were transferred to an un-skirted 96 well PCR plate after which they were mixed to a homogeneous solution. The plate was then sealed and pulsed for 6 seconds per well (E200-S0%250 mV500 setting) on a Covaris Adaptive Focused Acoustic (AFA) cell disruptor (Covaris, Woburn, MA). 130 µl of Dichloromethane was then added to each well after which plates were incubated at room temperature for 2 hours. Post incubation, 52 µl of ddH2O was added to induce phase separation. […] 45 µl of this final sample was transferred to a 384 well plate and analyzed on a RapidfireTM (Biocius, Wakefield, MA) ultra-high throughput chromatography system interfaced with a TSQ Vantage triple stage quadrupole mass spectrometer (Thermo Scientific, Waltham, MA). […] After an aqueous wash ((80∶20) Methanol/ddH2O containing 75 mM NH4OH and 0.1% formic acid) to remove the S1P extraction components that interfere with mass spectrometry, C17-S1P was eluted ((99∶1) Methanol/ddH2O containing 0.1% formic acid) and analyzed by inline triple stage quadrupole mass spectrometry. […] C17-S1P was monitored using a selective reaction monitoring protocol which detected the loss of a phosphate molecule from the parent ion C17-S1P. […]
(§10) Two hours after addition of C17 sphingosine, cells were lysed and levels of C17 S1P were determined.

[20] = system: human breast cancer cell line MDA-MB-231; assay: Cellular SPHK activity, C17 S1P levels; conditions: MDA-MB-231, 2 h, read-out: IC50, inhibition of cellular SPHK activity (C17 S1P)
Protocol: as §9, §10

[21] = system: murine melanoma cell line B16F10; assay: Cellular SPHK activity, C17 S1P levels; conditions: Mus musculus, B16-F10, 2 h, read-out: IC50, inhibition of cellular SPHK activity (C17 S1P)
Protocol: as §9, §10

[22] = molecular target: hSPHK2 (Homo sapiens, UniProt Q9NRA0); assay: Biochemical SPHK activity, 33P incorporation into S1P; conditions: biochemical assay
hSPHK2, sequence (Q9NRA0 whole entry): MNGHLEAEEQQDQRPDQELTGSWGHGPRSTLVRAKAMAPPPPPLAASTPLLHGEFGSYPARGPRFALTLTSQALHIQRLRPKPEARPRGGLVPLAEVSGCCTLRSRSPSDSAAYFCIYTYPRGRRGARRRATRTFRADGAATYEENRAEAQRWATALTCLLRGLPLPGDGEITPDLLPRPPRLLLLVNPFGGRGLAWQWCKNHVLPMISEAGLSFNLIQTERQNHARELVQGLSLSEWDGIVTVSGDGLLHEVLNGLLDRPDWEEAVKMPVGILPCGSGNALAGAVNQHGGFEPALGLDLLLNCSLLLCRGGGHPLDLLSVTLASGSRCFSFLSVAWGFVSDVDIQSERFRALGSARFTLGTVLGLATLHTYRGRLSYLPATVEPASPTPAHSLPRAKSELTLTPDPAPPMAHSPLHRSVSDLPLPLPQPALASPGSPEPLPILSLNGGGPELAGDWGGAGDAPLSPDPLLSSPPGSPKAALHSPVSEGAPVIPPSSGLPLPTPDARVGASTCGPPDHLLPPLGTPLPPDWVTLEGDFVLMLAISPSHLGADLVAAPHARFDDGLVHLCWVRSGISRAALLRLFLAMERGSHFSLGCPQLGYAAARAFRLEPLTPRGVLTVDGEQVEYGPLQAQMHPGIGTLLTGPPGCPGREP
Protocol: as §1

[23] = molecular target: mSPHK2 (Mus musculus, UniProt Q9JIA7); assay: as above; parameters: species or system murine; conditions: biochemical assay
mSPHK2, sequence (Q9JIA7 whole entry): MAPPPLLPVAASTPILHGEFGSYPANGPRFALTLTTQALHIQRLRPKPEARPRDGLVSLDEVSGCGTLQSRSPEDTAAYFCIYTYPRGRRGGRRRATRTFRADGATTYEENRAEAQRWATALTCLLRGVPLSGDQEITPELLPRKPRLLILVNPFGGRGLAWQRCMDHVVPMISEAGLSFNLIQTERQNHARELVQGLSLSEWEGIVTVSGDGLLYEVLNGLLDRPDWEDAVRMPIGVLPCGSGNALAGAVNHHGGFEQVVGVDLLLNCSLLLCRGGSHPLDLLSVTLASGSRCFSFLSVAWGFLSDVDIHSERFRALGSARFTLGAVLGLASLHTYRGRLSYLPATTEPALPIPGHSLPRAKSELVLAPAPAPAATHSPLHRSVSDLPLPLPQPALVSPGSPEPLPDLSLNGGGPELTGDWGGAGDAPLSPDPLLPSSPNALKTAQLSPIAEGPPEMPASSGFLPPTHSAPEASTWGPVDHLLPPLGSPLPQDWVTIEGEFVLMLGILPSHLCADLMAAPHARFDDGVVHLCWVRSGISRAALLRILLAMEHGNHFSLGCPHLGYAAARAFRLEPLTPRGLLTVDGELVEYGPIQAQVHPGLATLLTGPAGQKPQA
Protocol: as §1

[24] = system: human melanoma cell line LOX; assay: Endogenous S1P levels 24 h after compound treatment; assay type: cell-based; conditions: 24 h treatment, read-out: IC50, endogenous S1P production (LOX)
Description: Several SPHK inhibitors have been reported in the literature, and have been utilized to support the rheostat theory.
as §5

[25] = system: SPHK1; parameters: method as in PMID 22397330; conditions: cited from earlier work
[26] = molecular target: hSPHK1 (Homo sapiens, UniProt Q9NYA1); assay: Biochemical SPHK activity, 33P incorporation into S1P; conditions: biochemical assay
hSPHK1, sequence (Q9NYA1 whole entry): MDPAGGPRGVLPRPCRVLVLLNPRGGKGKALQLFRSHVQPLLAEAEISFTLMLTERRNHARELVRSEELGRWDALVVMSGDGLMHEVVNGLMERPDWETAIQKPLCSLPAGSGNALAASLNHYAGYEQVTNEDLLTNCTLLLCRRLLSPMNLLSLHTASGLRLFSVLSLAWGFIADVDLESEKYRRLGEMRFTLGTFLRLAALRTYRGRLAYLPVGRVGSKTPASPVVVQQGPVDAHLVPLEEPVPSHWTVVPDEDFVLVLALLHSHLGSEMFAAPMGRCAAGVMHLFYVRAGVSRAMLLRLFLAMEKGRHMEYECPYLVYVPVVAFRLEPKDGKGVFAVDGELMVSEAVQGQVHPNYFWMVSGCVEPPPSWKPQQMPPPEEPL
Protocol: as §1

mSPHK1, sequence (Q8CI15 whole entry): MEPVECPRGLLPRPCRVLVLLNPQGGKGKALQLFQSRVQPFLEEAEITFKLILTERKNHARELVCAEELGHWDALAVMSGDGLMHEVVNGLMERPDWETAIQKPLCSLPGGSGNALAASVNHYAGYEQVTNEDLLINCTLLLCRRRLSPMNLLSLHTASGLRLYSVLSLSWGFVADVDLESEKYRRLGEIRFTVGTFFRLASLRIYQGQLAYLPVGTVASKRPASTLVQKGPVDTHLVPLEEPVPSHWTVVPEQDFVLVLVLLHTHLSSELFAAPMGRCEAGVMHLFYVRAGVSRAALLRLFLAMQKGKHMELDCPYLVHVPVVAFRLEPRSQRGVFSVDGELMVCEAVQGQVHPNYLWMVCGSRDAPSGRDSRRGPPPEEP

Compound	IC50 [1]	IC50s, inhibition of SPHK activity in human cell lines [2]	IC50 [3]	IC50 [4]	IC50 [5]	IC50 [6]	IC50 [7]	IC50 [8]	IC50 [9]	IC50 [10]	IC50 [11]	IC50 [12]	IC50 ([13]; Homo sapiens)	effect on viability at 1 µM compound [14]	viability in 72 h proliferation and 15 day colony formation assays [15]	IC50 [19]	IC50 [22]	IC50 [23]	also measured
OC[C@H]1C[C@@H](O)CCN1CCc1ccc(Nc2nc(-c3ccc(C(F)(F)F)cc3)cs2)cc1 [Compound A]	64 nM	double digit nanomolar range	8.3 µM	5.1 µM	6.3 µM	6 µM	6.4 µM	4.1 µM	4.8 µM	7 µM	4.4 µM	6 µM	4 µM	did not result in reduced viability	viability was unchanged	63 nM	–	–	reduction of host / plasma S1P levels ([16]; 300 mg/kg oral): more than 70%; maximum inhibition of plasma levels of S1P ([16]; oral gavage 10-300 mg/kg, at plasma exposure of 0.38 µM): 72%; oral bioavailability [17]: orally bioavailable; plasma exposure at maximum inhibition of plasma S1P [17]: 0.38 µM; effect on tumor growth in vivo ([18]; 300 mg/kg daily by oral gavage from day 18): did not lead to significant inhibition of tumor growth; mice in which compound was not tolerated (deaths) ([18]; 300 mg/kg daily by oral gavage, cause of death unknown): 3 out of the 10; IC50 [20]: 90 nM; IC50 [21]: 250 nM
Oc1ccc(Nc2nc(-c3ccc(Cl)cc3)cs2)cc1 [SKII, reference compound]	> 10000 nM	–	–	–	–	–	–	–	–	–	–	–	–	–	–	–	13 µM	> 10 µM	IC50 (mSPHK1) [1]: too low to be detected; IC50 [13]: 11.3 µM; IC50 [24]: 7.5 µM
CCCCCc1ccc(/C=C/[C@H](O)[C@@H](CO)NC)cc1 [SK1-I]	–	–	–	–	–	–	–	–	–	–	–	–	–	–	–	–	–	–	biochemical IC50 [25]: in the micromolar range
OC[C@H]1C[C@H](O)CN1CCCc1ccc(Nc2nc(-c3cccc(C(F)(F)F)c3)cs2)cc1 [Compound B]	55 nM	double digit nanomolar range	17.4 µM	9.4 µM	15.5 µM	10.1 µM	14.3 µM	5.5 µM	8.7 µM	13.5 µM	6.5 µM	13.2 µM	6.2 µM	did not result in reduced viability	viability was unchanged	36 nM	0.06 µM	> 5 µM	IC50 [26]: 8 nM
